Our source for the Ki values is patent US7125990B2, “Imidazolyl derivatives as corticotropin releasing factor inhibitors” (Bristol-Myers Squibb COmpany, priority 2001, dated 2006).

The term Ki denotes the equilibrium dissociation constant of an inhibitor or competing ligand from its target.

In this assay the target is T1, CRF1 receptors (Homo sapiens, UniProt P34998).
T1 construct: endogenous in cells; host or cells: IMR-32 cells, transformed with 2.5 µM 5'-bromo-2'-deoxyuridine for 10 days; membrane preparation
T1 sequence (P34998 24-415): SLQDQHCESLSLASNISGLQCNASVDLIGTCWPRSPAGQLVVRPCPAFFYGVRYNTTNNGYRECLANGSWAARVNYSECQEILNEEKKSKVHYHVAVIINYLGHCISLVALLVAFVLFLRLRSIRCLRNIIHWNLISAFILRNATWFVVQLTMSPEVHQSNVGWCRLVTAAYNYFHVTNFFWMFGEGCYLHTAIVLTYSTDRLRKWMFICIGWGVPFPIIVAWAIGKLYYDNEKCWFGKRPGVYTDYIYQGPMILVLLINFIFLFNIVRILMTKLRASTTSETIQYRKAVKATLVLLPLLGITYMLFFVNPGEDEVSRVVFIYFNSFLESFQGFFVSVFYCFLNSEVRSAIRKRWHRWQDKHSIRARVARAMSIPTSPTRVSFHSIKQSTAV
Description: CRF1 receptor radioligand binding assay ([125I]-oCRF competition, IMR-32 cell membranes). Particulars: IMR-32 cell membranes, [125I]-oCRF 100 pM; read-out: Ki (CRF-1R). The procedure: CRF1 receptor antagonists, by occupying the same receptors, blocks the accessibility of the receptors to CRF, a hypothalamic factor mediating body's responses to physiological and psychological stress. The following radioligand binding assay examines the ability of the antagonists to bind the CRF1 receptors by assessing their ability to compete with binding of CRF to the receptors in cell membrane.
Tissue culture and membrane preparation. IMR-32 cells were grown at 37° C. in 5% CO2 as a monolayer in medium consisting of MEM supplemented with 10% heat-inactivated fetal bovine serum, 0.1 mM nonessential amino acids, 1 mM sodium pyruvate and 2 mM L-glutamine. […] After transformation, cells were rinsed twice with phosphate-buffered saline, and incubated for 10–15 min. at 4° C. in homogenization buffer consisting of 50 mM Tris (pH 7.2), 10 mM MgCl2 and 2 mM EGTA. Cells were transferred from plates to polypropylene tubes (16×100 mm), homogenized and centrifuged at 32,000×g for 15 min. Pellets were resuspended by homogenization in buffer and centrifuged at 32,000×g for 15 min. Pellets were resuspended in homogenization buffer then stored at −80° C. until needed.
Radioligand binding assays. […] The assay buffer consisted of 50 mM Tris (pH 7.2), 10 mM MgCl2, 0.5% BSA, 0.005% Triton X-100, 10 μg/mL aprotinin and 10 μg/mL leupeptin. Assays were stopped by addition of ice-cold wash buffer (50 mM Tris, pH 7.4 and 0.2% BSA). Filtration over glass fiber filters (Whatman GF/B) previously soaked in 50 mM Tris, pH 7.2 and 1% BSA was carried out using a Brandel cell harvester. Filters were washed with 10 mL of ice-cold wash buffer. Non-specific binding was defined with 10 μM oCRF. IC50 values for oCRF and test compounds were calculated by nonlinear regression using a one-site binding curve (GraphPad Prism).

Regarding `CCCN(Cc1c(C(F)(F)F)nc2n(-c3c(C)cc(C)cc3C)c3ccccc3n12)CC1CCC1` [Example 153, Cyclobutylmethyl-propyl-[2-trifluoromethyl-8-(2,4,6-trimethyl-phenyl)-8H-1,3a,8-triaza-cyclopenta[α]inden-3-ylmethyl]-amine], the Ki is less than 0.1 µM.

Turning to `Cc1cc(C)c(N2CCCn3c2nc(C(F)(F)F)c3CN2CCSCC2)c(C)c1` [Example 61, 3-Thiomorpholin-4-ylmethyl-2-trifluoromethyl-8-(2,4,6-trimethyl-phenyl)-5,6,7,8-tetrahydro-imidazo[1,2-a]pyrimidine], the Ki is less than 1 µM. The same measure for `CCCN(CC(F)(F)F)C(=O)c1c(CC)nc2n1CCN2c1ccc(C(C)C)cc1Br` [Example 36, 7-(2-Bromo-4-isopropyl-phenyl)-2-ethyl-6,7-dihydro-5H-imidazo[1,2-a]imidazole-3-carboxylic acid propyl-(2,2,2-trifluoro-ethyl)-amide]: less than 1 µM. Regarding “Phenethyl-[2-trifluoromethyl-8-(2,4,6-trimethyl-phenyl)-8H-1,3a,8-triaza-cyclopenta[α]inden-3-ylmethyl]-(3,3,3-trifluoro-propyl)-amine [Example 168]”, the inhibition constant (Ki) is less than 1 µM.

Regarding `C=CCN(CC=C)Cc1c(C(F)(F)F)nc2n(-c3ccc(Cl)cc3Cl)c3ccccc3n12` [Example 184, Diallyl-[8-(2,4-dichloro-phenyl)-2-trifluoromethyl-8H-1,3a,8-triaza-cyclopenta[α]inden-3-ylmethyl]-amine], the inhibitory constant (Ki) was less than 10 µM. As for `CCCN(CCc1ccccc1)C(=O)c1c(CC)nc2n1CCN2c1c(C)cc(C)cc1C` [Example 13, 2-Ethyl-7-(2,4,6-trimethyl-phenyl)-6,7-dihydro-5H-imidazo[1,2-a]imidazole-3-carboxylic acid phenethyl-propyl-amide], the figure is less than 1 µM; as for `CCCN(Cc1c(C(F)(F)F)nc2n1CCCN2c1c(C)cc(C)cc1Cl)CC1CC1` [Example 96, [8-(2-Chloro-4,6-dimethyl-phenyl)-2-trifluoromethyl-5,6,7,8-tetrahydro-imidazo[1,2-a]pyrimidin-3-ylmethyl]-cyclopropylmethyl-propyl-amine], less than 0.1 µM; as for `C=CCN(CC=C)C(=O)c1c(CC)nc2n1CCN2c1c(C)cc(C)cc1C` [Example 22, 2-Ethyl-7-(2,4,6-trimethyl-phenyl)-6,7-dihydro-5H-imidazo[1,2-a]imidazole-3-carboxylic acid diallylamide], less than 10 µM. The same measure for `FC(F)(F)c1nc2n(-c3ccc(Cl)cc3Cl)c3ccccc3n2c1CN(CC1CC1)CC(F)(F)C(F)(F)F` [Example 183, Cyclopropylmethyl-[8-(2,4-dichloro-phenyl)-2-trifluoromethyl-8H-1,3a,8-triaza-cyclopenta[α]inden-3-ylmethyl]-(2,2,3,3,3-pentafluoro-propyl)-amine]: less than 10 µM; for `CCCCN(Cc1ccccc1)Cc1c(C(F)(F)F)nc2n1CCCN2c1c(C)cc(C)cc1Cl` [Example 105, Benzyl-butyl-[8-(2-chloro-4,6-dimethyl-phenyl)-2-trifluoromethyl-5,6,7,8-tetrahydro-imidazo[1,2-a]pyrimidin-3-ylmethyl]-amine]: less than 1 µM. Regarding `CCCN(CC1CC1)C(=O)c1c(C)nc2n(-c3c(C)cc(C)cc3C)c(Cl)cn12` [Example 283, 6-Chloro-2-methyl-7-(2,4,6-trimethyl-phenyl)-7H-imidazo[1,2-a]imidazole-3-carboxylic acid cyclopropylmethyl-propyl-amide], the Ki was less than 0.1 µM. On to `CCCN(Cc1c(C(F)(F)F)nc2n(-c3c(C)cc(C)cc3C)c(Cl)cn12)CC1CC1` [Example 303, [6-Chloro-2-trifluoromethyl-7-(2,4,6-trimethyl-phenyl)-7H-imidazo[1,2-a]imidazol-3-ylmethyl]-cyclopropylmethyl-propyl-amine], for which the Ki is less than 0.01 µM. For `CCc1nc2n(c1C(=O)N(CC)CC1CC1)CCN2c1c(C)cc(C)cc1C` [Example 10, 2-Ethyl-7-(2,4,6-trimethyl-phenyl)-6,7-dihydro-5H-imidazo[1,2-a]imidazole-3-carboxylic acid cyclopropylmethyl-(ethyl)-amide], the inhibition constant Ki was less than 0.1 µM. As for `CCN(Cc1ccccc1)Cc1c(C(F)(F)F)nc2n(-c3c(C)cc(C)cc3C)c(Cl)cn12` [Example 309, Benzyl-[6-chloro-2-trifluoromethyl-7-(2,4,6-trimethyl-phenyl)-7H-imidazo[1,2-a]imidazol-3-ylmethyl]-ethyl-amine], the figure is less than 1 µM; as for `CCCN(CCC1CC1)Cc1c(C(F)(F)F)nc2n(-c3c(C)cc(C)cc3C)c3ccccc3n12` [Example 164, (2-Cyclopropyl-ethyl)-propyl-[2-trifluoromethyl-8-(2,4,6-trimethyl-phenyl)-8H-1,3a,8-triaza-cyclopenta[α]inden-3-ylmethyl]-amine], less than 1 µM.

As for `Cc1cc(C)c(N2CCCn3c2nc(C(F)(F)F)c3CN2CCCCC2)c(Cl)c1` [Example 99, 8-(2-Chloro-4,6-dimethyl-phenyl)-3-piperidin-1-ylmethyl-2-trifluoromethyl-5,6,7,8-tetrahydro-imidazo[1,2-a]pyrimidine], the Ki was less than 1 µM. Regarding `CCCN(CCC(F)(F)F)C(=O)c1c(CC)nc2n1CCN2c1c(C)cc(C)cc1C` [Example 12, 2-Ethyl-7-(2,4,6-trimethyl-phenyl)-6,7-dihydro-5H-imidazo[1,2-a]imidazole-3-carboxylic acid propyl-(3,3,3-trifluoropropyl)-amide], the inhibition constant Ki is less than 1 µM. As to `CCCN(CC(F)(F)F)C(=O)c1c(CC)nc2n1CCN2c1c(C)cc(C)cc1C` [Example 6, 2-Ethyl-7-(2,4,6-trimethyl-phenyl)-6,7-dihydro-5H-imidazo[1,2-a]imidazole-3-carboxylic acid propyl-(2,2,2-trifluoro-ethyl)-amide], the Ki was less than 0.1 µM. The same measure for `CCCN(Cc1cccc(F)c1)Cc1c(C(F)(F)F)nc2n(-c3c(C)cc(C)cc3C)c(Cl)cn12` [Example 340, [6-Chloro-2-trifluoromethyl-7-(2,4,6-trimethyl-phenyl)-7H-imidazo[1,2-a]imidazol-3-ylmethyl]-(3-fluoro-benzyl)-propyl-amine]: less than 1 µM; for `CCc1nc2n(-c3c(C)cc(C)cc3C)c3ncccc3n2c1CN(CC)CC1CC1` [Example 250, Cyclopropylmethyl-ethyl-[2-ethyl-8-(2,4,6-trimethyl-phenyl)-8H-1,3a,7,8-tetraaza-cyclopenta[α]inden-3-ylmethyl]-amine]: less than 1 µM; for `Cc1cc(C)c(-n2c(Cl)cn3c(CN(CC4CCC4)CC(F)(F)F)c(C(F)(F)F)nc23)c(C)c1` [Example 320, [6-Chloro-2-trifluoromethyl-7-(2,4,6-trimethyl-phenyl)-7H-imidazo[1,2-a]imidazol-3-ylmethyl]-cyclobutylmethyl-(2,2,2-trifluoro-ethyl)-amine]: less than 0.01 µM.

In the case of `C=C(C)CN(CC)Cc1c(C(F)(F)F)nc2n(-c3c(C)cc(C)cc3C)c(Cl)cn12` [Example 312, [6-Chloro-2-trifluoromethyl-7-(2,4,6-trimethyl-phenyl)-7H-imidazo[1,2-a]imidazol-3-ylmethyl]-ethyl-(2-methyl-allyl)-amine], the inhibitory constant (Ki) was less than 0.1 µM. Take `Cc1cc(C)c(-n2c(Cl)cn3c(CN(C)Cc4ccccc4)c(C(F)(F)F)nc23)c(C)c1` [Example 307, Benzyl-[6-chloro-2-trifluoromethyl-7-(2,4,6-trimethyl-phenyl)-7H-imidazo[1,2-a]imidazol-3-ylmethyl]-methyl-amine]: the inhibition constant (Ki) is less than 1 µM. With `C=CCN(CC=C)Cc1c(C(F)(F)F)nc2n(-c3c(C)cc(C)cc3C)c3ncccc3n12` [Example 219, Diallyl-[2-trifluoromethyl-8-(2,4,6-trimethyl-phenyl)-8H-1,3a,7,8-tetraaza-cyclopenta[α]inden-3-ylmethyl]-amine], the Ki is less than 1 µM. With `Cc1cc(C)c(-n2c3ccccc3n3c(CN(CCC(F)(F)F)CC4CC4)c(C(F)(F)F)nc23)c(C)c1` [Example 152, Cyclopropylmethyl-[2-trifluoromethyl-8-(2,4,6-trimethyl-phenyl)-8H-1,3a,8-triaza-cyclopenta[α]inden-3-ylmethyl]-(3,3,3-trifluoro-propyl)-amine], the Ki is less than 0.1 µM.
